# Measured values taken from patent US20240182526A1, “COMPOSITIONS AND METHODS FOR MODULTING INFLAMMATORY AND DEGENERATIVE DISORDER” (University of Southern California, priority 2021, published 2024).
# Entries after “also recorded” stand apart in the source; their conditions may differ. Where no end group is shown, it is not given here. [ ]: non-standard residue; d: D form. pY = N[C@@H](Cc1ccc(OP(=O)(O)O)cc1)C(=O)O
# Legend:
# [1] = system: adult and pig articular cartilage; details: cited from earlier work
# [2] = system: rat medial meniscectomy and cartilage surface injury models; details: cited from earlier work
# [3] = system: gp130 receptor signaling; details: previous studies; cited from earlier work
# [4] = system: pNF-κB p65; assay: Western blot of pNF-κB p65 in pig articular chondrocytes; type: cell-based; details: for protein levels of pNF-κB p65 after OSM stimulation: pig articular chondrocytes, 24 hours
# Method: (§1) For standard western blot, treated and non-treated cells were lysed in RIPA Lysis and Extraction Buffer (Pierce, Rockford, IL) containing protease inhibitors (Pierce) followed by sonication with a 15-second pulse at a power output of 2 using the VirSonic 100 (SP Industries Company, Warminster, PA). Protein concentrations were determined by BCA protein assay (Pierce). Proteins were resolved with SDS-PAGE utilizing 4-15% Mini-PROTEAN TGX Precast Gels and transferred to Trans-Blot Turbo Transfer Packs with a 0.2-μm pore-size nitrocellulose membrane. The SDS-PAGE running buffer, 4-15% Mini-PROTEAN TGX Precast Gels, Trans-Blot Turbo Transfer Packs with a 0.2-μm pore-size nitrocellulose membrane was purchased from Biorad (Hercules, CA). Nitrocellulose membranes were blocked in 5% nonfat milk in 0.05% (v/v) Tween 20 (PBST) (Corning, Manassas, VA). Membranes were then incubated with primary antibodies p-gp130 Y814 (Evseenko lab, AbClonal), p-AKT (cat #4060, Cell Signaling), p-ERK 1/2 (cat #9106, Cell Signaling), p-Y416-SRC (cat #1246F, Novus Biologicals), p-gp130 (cat #1453R, Bioss USA) and p-NFκBp65 (cat #8242, Cell Signaling), and/or YAP1 (cat #4912, Cell Signaling). Histone H3 (cat #9515, Cell Signaling) was used as loading control. After washing in PBS containing 0.05% (v/v) Tween 20 (PBST), membranes were incubated with rabbit (cat #31460, Thermo Scientific) or mouse IgG-HRP (cat #31430, Thermo Scientific) secondary antibodies. After washing, membranes were developed with the Clarity Western ECL Blotting Substrate (Hercules, CA). Quantification of blots was performed using ImageJ 1.44 followed by Prism9 for analysis.
# [5] = system: ADAMTS4, ADAMTS5 and MMP13 transcription; assay: qPCR of matrix-degrading genes in OSM-stimulated pig articular chondrocytes; type: cell-based; details: 48 hours
# Method: (§2) Quantitative Real-Time PCR. Power SYBR Green (Applied Biosystems) RT-PCR amplification and detection was performed using an Applied Biosystems Step One Plus Real-Time PCR machine. The comparative Ct method for relative quantification (2-ΔΔCt) was used to quantitate gene expression. TBP (TATA-box binding protein) was used for gene normalization and expressed relative to a calibrator (sample in each set with lowest expression). Q-PCR for was conducted using the following primers: human: TBP forward, 5′ GATGGACGTTCGGTTTAGG 3′ (SEQ ID NO:28); TBP reverse, 5′ AGCAGCACAGTACGAGCAA 3′ (SEQ ID NO:29), MMP13 forward, 5′ […] 3′(SEQ ID NO:30); MMP13 reverse, 5′ GAACCCCGCATCTTGGCTT 3′ (SEQ ID NO:31), ADAMTS5 forward 5′ […] 3′ (SEQ ID NO:32); ADAMTS5 reverse, 5′ […] 3′ (SEQ ID NO:33), ADAMTS4 forward 5′ […] 3′ (SEQ ID NO:34); ADAMTS4 reverse, 5′ […] 3′ (SEQ ID NO:35), Collagen II forward, 5′ […] 3′ (SEQ ID NO:36); Collagen II reverse 5′ […] 3′ (SEQ ID NO:37); Aggrecan forward, 5′ AGGCAGCGTGATCCTTACC 3′ (SEQ ID NO:38); Aggrecan reverse, 5′ […] 3′ (SEQ ID NO:39). Cells were treated with 10 ng/mL OSM and/or with 5 μM SRC (SU6656) inhibitor, 10 ng/mL OSM and/or 50 ng/mL WT/F814 plasmids; 10 ng/mL OSM and/or 100 or 300 ug/mL of peptide QQpYF (Evseenko lab, Thermo Scientific); 10 uM R805 and/or 10 ng/mL OSM.
# [6] = system: pSRC; assay: Western blot of pSRC in pig articular chondrocytes; type: cell-based; details: for protein levels of pSRC after OSM stimulation: pig articular chondrocytes, 4 and 24 hours
# Method: as §1
# (§3) The studies delineate that gp130 Y814 regulates SRC downstream signaling; since SRC is known to associate with gp130, it was hypothesized that gp130 and SRC are capable of physically interacting on Y814 and hindering this interaction will prevent SRC from signaling. In order to impede this interaction, experiments were performed using an innovative peptide library screen with short and overlapping peptides mimicking the motif of gp130 around Y814 that were individually tested for pSRC downregulation; these peptides ranged from 4-15 amino acids. The peptides contained a protein sequence stretch of consecutive amino acids surrounding gp130 Y814 residue. To test their efficacy, pig articular chondrocytes were stimulated with or without OSM in presence or absence of the peptides followed by co-immunoprecipitation to determine interaction and western blot detecting pSRC activity. […] Due to sequence specificity, the peptide is capable of discriminating among other gp130 regions serving as a competitive inhibitor.
# [7] = system: pNF-kB p65; assay: Western blot of pNF-kB p65 in human synovium stimulated with OSM; type: cell-based; details: with or without OSM, 24 hours
# Method: as §1, with “After washing in PBS containing 0.05% (v/v) Tween 20 (PBST), membranes were incubated with rabbit (cat #31460, Thermo Scientific) or mouse IgG-HRP (cat #31430, Thermo Scientific) secondary antibodies. After washing, membranes were developed with the Clarity Western ECL Blotting Substrate (Hercules, CA).” left out
# [8] = target: T1, pSRC (Homo sapiens, UniProt P12931); assay: Western blot of pSRC in human synovium stimulated with OSM; type: cell-based; details: with or without OSM, 24 hours
# T1 construct: from tissue; host or cells: human synovium
# Method: as §1, with “After washing in PBS containing 0.05% (v/v) Tween 20 (PBST), membranes were incubated with rabbit (cat #31460, Thermo Scientific) or mouse IgG-HRP (cat #31430, Thermo Scientific) secondary antibodies. After washing, membranes were developed with the Clarity Western ECL Blotting Substrate (Hercules, CA).” left out
# [9] = system: gp130 and pSRC; assay: Co-immunoprecipitation of complex formation between gp130 and pSRC in pig articular chondrocytes; type: cell-based; details: pig articular chondrocytes with or without OSM, 4 and 24 hours
# Method: IP Western, SDS-PAGE and Western blot analysis. For transfections of gp130 wild type (WT) (InVivoGen) and gp130 mutant plasmids (Thermo Scientific), cells were plated 24 h prior to transfection to produce monolayers that were 60% confluent and these were transfected by using Turbo DNAfectin 3000 (cat #G3000, Lambda Biotech) according to the manufacturer's protocol. 72h after transfection, cells were maintained in DMEM (10% FBS, 1% PSA) and were either left untreated or were stimulated with IL-6 (10 ng/mL) and/or OSM (10 ng/mL) for 24 h before cell harvest and protein extraction. For immunoprecipitation assays, cell lysates were incubated with Protein G Agarose (cat #20398, Pierce) and anti-Flag antibody (cat #2368, Cell Signaling) at 4° C. overnight. The immune complexes were sedimented, washed and separated by SDS-PAGE (see below) and further analyzed by Western blot using p-SRC (pY416-SRC) (cat #1246F, Novus Biologicals) or NEMO (cat #18474-1-AP, Proteintech) antibodies and normalized to gp130 (cat #bs-1459R, Bioss) or total SRC (cat #2123, Cell Signaling). For R805 treatment, the immune complexes were sedimented, washed and separated by SDS-PAGE and further analyzed by Western blot using OSMR (cat #ab85575, Abcam), LIFR (Santa cat #515337, Cruz Biotechnology) or p-SRC (pY416-SRC) (Novus Biologicals, cat #1246F). Histone H3 (cat #9715, Cell Signaling), gp130 (cat #bs-1459R, Bioss), total SRC (cat #2123, Cell Signaling) or Flag antibody (cat #14739, Cell Signaling) were used as loading controls.
# as §3
# [10] = system: ADAMTS4/5, MMP13, COL2 and ACAN transcription; assay: qPCR of catabolic and anabolic genes in human adult OA articular chondrocytes; type: cell-based; details: 48 hours
# Method: as §2
# [11] = system: cleaved ACAN and COL2 neoepitopes; assay: Neoepitope assay on pig articular cartilage explants stimulated with OSM; type: cell-based; details: 72 hours, normalized to wet weight
# Method: Neoepitope analysis. WT and F814 mouse articular cartilage explants were treated with or without OSM (10 ng/mL). Pig articular cartilage explants were stimulated with or without OSM (10 ng/mL) and treated with or without peptide QQpYF (100 μg/mL or 300 μg/mL). For R805 treatment, pig articular cartilage explants were stimulated with or without OSM (10 ng/mL) and treated with or without R805 (0.01, 0.1, 1 or 10 μM). The explants were then digested for 2 hr at 37° C. with 0.01 units chondroitinase ABC (Sigma Aldrich, St. Louis, MO). Samples were then dialyzed with ultrapure water for 24 hr at 4° C., freeze dried, dissolved in RIPA Lysis and Extraction Buffer (Pierce, IL) containing protease inhibitors (Pierce) followed by sonication. Proteins were separated and analyzed by Western blot using primary antibodies against aggrecan (cat #NB100-74350, Novus Biologicals,) and collagen II neoepitopes (cat #50-1035, Ibex). Wet weight of explants was used as loading control.
# [12] = pig articular chondrocytes treated with peptides for 24 hours, no OSM
molecule,measurement,setting,value
Brc1ccc(Nc2nc(-c3ccccc3)cs2)cc1 [RCGD 423],articular cartilage degeneration,[1],protects adult and pig articular cartilage from degeneration
same,cartilage regeneration,[2],promotes cartilage regeneration
same,STAT3 signaling and downstream MYC,[3],"highly activate STAT3 signaling and its downstream target, proto-oncogene MYC"
same,activation of MAPK/ERK and NF-κB pathways,[3],prevents activation of MAPK/ERK and NF-κB pathways
"CN(C)S(=O)(=O)c1ccc2c(c1)/C(=C/c1cc3c([nH]1)CCCC3)C(=O)N2 [SU6656, reference compound]",protein levels of pNF-κB p65 after OSM stimulation,[4],can be blocked by SRC inhibition
same,"OSM-induced transcription of matrix-degrading genes (ADAMTS4, ADAMTS5, MMP13), qPCR",[5],can be blocked by SRC inhibition
PRQQ[pY]FKQ [Peptide 5],endogenous protein levels of phosphorylated c-SRC (pSRC),[6]; [12],inhibits endogenous SRC and NF-kB protein expression
same,protein levels of pNF-kB p65,[7],inhibits SRC and NF-kB protein expression
same,protein levels of pSRC,[8],inhibits SRC and NF-kB protein expression
same,endogenous protein levels of NF-kB p65,[4]; [12],inhibits endogenous SRC and NF-kB protein expression
"QQ(PY)F (QQYF) [Peptide P2A, 4 amino acid SRC-targeting interfering peptide, Gln-Gln-phosphoTyr-Phe]",protein levels of pSRC after OSM stimulation,[6],decreasing SRC and NF-κB activation; also recorded: significant effect on decreasing SRC and NF-κB signaling; also recorded: inhibits SRC activity
same,protein levels of pSRC after OSM stimulation,[6]; listed as QQ[pY]F,decreasing pSRC activation
same,protein levels of pSRC after OSM stimulation,[6]; listed as QQpYF,inhibits activation of SRC downstream of gp130
same,complex formation between gp130 and pSRC (gp130-SRC interaction),[9],most efficacious at physically hindering gp130-SRC protein-protein interaction
same,complex formation between gp130 and pSRC (gp130-SRC interaction),[9]; listed as QQ[pY]F,most efficacious at physically hindering gp130-SRC protein-protein interaction
same,complex formation between gp130 and pSRC (gp130-SRC interaction),[9]; listed as QQpYF,prevents physical interaction of gp130 and SRC
same,"biosynthesis (COL2 and ACAN transcription), qPCR",[10],promotes biosynthesis
same,"transcription of catabolic enzymes (ADAMTS4/5 and MMP13), qPCR",[10],decreased transcription of catabolic enzymes; also recorded: inhibits transcription of matrix degrading genes
same,"biosynthesis (COL2 and ACAN transcription), qPCR",[10]; listed as QQpYF,increased
same,"transcription of catabolic enzymes (ADAMTS4/5 and MMP13), qPCR",[10]; listed as QQpYF,markedly lower
same,matrix degeneration: levels of cleaved ACAN and COL2 neoepitopes,[11],prevented matrix degeneration in pig cartilage explants; also recorded: sustained prevention of catabolism; also recorded: prevents degeneration in pig cartilage explants; also recorded: dose dependent
same,matrix degeneration: levels of cleaved ACAN and COL2 neoepitopes,[11]; listed as QQpYF,decrease of aggrecanase and collagenase activity
same,protein levels of pNF-κB p65 after OSM stimulation,[4],decreasing SRC and NF-κB activation; also recorded: significant effect on decreasing SRC and NF-κB signaling
